Data from patent US20100056483A1, “METHODS AND COMPOSITIONS FOR THE TREATMENT AND PREVENTION OF BONE LOSS” (OHIO UNIVERSITY, priority 2008, published 2010).

How the values were obtained:
[1] = broad-spectrum divalent-cation chelator; cited from earlier work
[2] = OVX rats; 200 mg/kg/day CaEDTA intraperitoneal; weighed weekly
Protocol: The temperature inside the chambers was 22° C. (±2) with relative humidity from 40 to 60%.
The rats were weighed and euthanized with carbon dioxide.

O=C(O)CN(CCN(CC(=O)O)CC(=O)O)CC(=O)O.[Ca] [CaEDTA, Calcium ethylenediaminetetra-acetic acid]
Affinity for zinc relative to calcium [1]: binds zinc with higher affinity than Calcium | Effect on body weight [2]: no effect on body weight
